Target: T1, human beta-2 receptor (Homo sapiens, UniProt P07550)
T1 construct: expressed in transfected cells; host or cells: Chinese hamster ovary cells (whole cells or membranes derived from them)
Test: Chinese hamster ovary cells co-expressing the human receptor with a reporter gene, cAMP measurement in whole cells or membranes (Method 2)
Format: cell-based
Details: CHO cells or membranes, read-out: pEC50 at the human beta-2 receptor (converted)
Description: Potency of compounds of the invention at the human beta 2, 1 and 3 receptors was also determined using Chinese hamster ovary cells co-expressing the human receptor with a reporter gene. Studies were performed using either whole cells or membranes derived from those cells.
The three beta-receptors are coupled via the Gs G-protein to cause a simulation of adenylate cyclase resulting in increased levels of cAMP in the cell. For direct cAMP measurements either membranes or cells have been used with either the HitHunter enzyme fragment complementation kit (DiscoveRx) or the FP^2 fluorescence polarisation kit (Perkin Elmer) to quantify the levels of cAMP present. These assays provide a measure of agonist potency and intrinsic activity of the compounds at the various receptors. […]
In this assay the potency of compounds at the human beta-2 receptor is expressed as a pEC50 value. Compounds of examples 12-26, 28-50 and 52-64 had pEC50 values greather than 6. […] No result is available for the compound of example 51.

T1 sequence (P07550 whole entry): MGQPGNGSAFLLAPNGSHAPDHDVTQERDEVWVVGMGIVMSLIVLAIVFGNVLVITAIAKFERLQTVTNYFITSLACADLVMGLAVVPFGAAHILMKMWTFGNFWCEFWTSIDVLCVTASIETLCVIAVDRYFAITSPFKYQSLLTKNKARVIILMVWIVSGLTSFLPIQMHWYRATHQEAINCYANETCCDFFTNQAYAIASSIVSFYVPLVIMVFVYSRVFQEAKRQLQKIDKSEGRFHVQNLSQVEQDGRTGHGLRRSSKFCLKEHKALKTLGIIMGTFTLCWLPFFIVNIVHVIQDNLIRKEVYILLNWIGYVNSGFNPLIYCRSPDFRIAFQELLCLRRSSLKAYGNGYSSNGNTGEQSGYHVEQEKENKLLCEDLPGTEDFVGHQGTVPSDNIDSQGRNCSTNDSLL

EC50 [nM] | SMILES
< 1000 | OCc1cc([C@@H](O)CNCCc2cccc(COCCOCc3cccc(OC(F)(F)F)c3)c2)ccc1O [Example 18, Formic acid compound with 2-(hydroxymethyl)-4-{(1R)-1-hydroxy-2-[(2-{3-[(2-{[3-(trifluoromethoxy)benzyl]oxy}ethoxy)methyl]phenyl}ethyl)amino]ethyl}phenol (1:1)]
< 1000 | OCc1cc([C@@H](O)CNCCc2cccc(COCCc3ccccc3O)c2)ccc1O [Example 25, Formic acid compound with 4-((1R)-1-hydroxy-2-{[2-(3-{[2-(2-hydroxyphenyl)ethoxy]methyl}phenyl)ethyl]amino}ethyl)-2-(hydroxymethyl)phenol (1:1)]
< 1000 | OCc1cc([C@@H](O)CNCCc2cccc(COCc3cccc(F)c3)c2)ccc1O [Example 49, Formic acid compound with 4-((1R)-2-{[2-(3-{[(3-fluorobenzyl)oxy]methyl}phenyl)ethyl]amino}-1-hydroxyethyl)-2-(hydroxymethyl)phenol (1:1)]
< 1000 | NC(=O)Nc1cccc(CCCCOCc2cccc(CCNC[C@H](O)c3ccc(O)c(CO)c3)c2)c1 [Example 58, Formic acid compound with N-{3-[4-({3-[2-({(2R)-2-hydroxy-2-[4-hydroxy-3-(hydroxymethyl)phenyl]ethyl}amino)ethyl]benzyl}oxy)butyl]phenyl}urea (1:1)]
< 1000 | O=S(=O)(c1cccc(CCCOCc2cccc(CCNC[C@H](O)c3ccc(O)c(CO)c3)c2)c1)C1CCCC1 [Example 31, Formic acid compound with 4-[(1R)-2-({2-[3-({3-[3-(cyclopentylsulfonyl)phenyl]propoxy}methyl)phenyl]ethyl}amino)-1-hydroxyethyl]-2-(hydroxymethyl)phenol (1:1)]
< 1000 | C[C@H](OCc1cccc(CCNC[C@H](O)c2ccc(O)c(CO)c2)c1)c1ccccc1 [Example 45, Formic acid compound with 2-(hydroxymethyl)-4-[(1R)-1-hydroxy-2-({2-[3-({[(1S)-1-phenylethyl]oxy}methyl)phenyl]ethyl}amino)ethyl]phenol (1:1)]
< 1000 | OCc1cc([C@@H](O)CNCCc2cccc(COCCc3cccc(F)c3)c2)ccc1O [Example 39, Formic acid compound with 4-((1R)-2-{[2-(3-{[2-(3-fluorophenyl)ethoxy]methyl}phenyl)ethyl]amino}-1-hydroxyethyl)-2-(hydroxymethyl)phenol (1:1)]
< 1000 | OCc1cc([C@@H](O)CNCCc2cccc(COCCCc3c(Cl)cccc3Cl)c2)ccc1O [Example 63, Formic acid compound with 4-((1R)-2-{[2-(3-{[3-(2,6-dichlorophenyl)propoxy]methyl}phenyl)ethyl]amino}-1-hydroxyethyl)-2-(hydroxymethyl)phenol (1:1)]
< 1000 | OCc1cc([C@@H](O)CNCCc2cccc(COCCOCc3cccc(O)c3)c2)ccc1O [Example 32, Formic acid compound with 4-[(1R)-1-hydroxy-2-({2-[3-({2-[(3-hydroxybenzyl)oxy]ethoxy}methyl)phenyl]ethyl}amino)ethyl]-2-(hydroxymethyl)phenol (1:1)]
< 1000 | NS(=O)(=O)c1cccc(CCOCc2cccc(CCNC[C@H](O)c3ccc(O)c(CO)c3)c2)c1 [Example 55, Formic acid compound with 3-[2-({3-[2-({(2R)-2-hydroxy-2-[4-hydroxy-3-(hydroxymethyl)phenyl]ethyl}amino)ethyl]benzyl}oxy)ethyl]benzenesulfonamide (1:1)]
< 1000 | OCc1cc([C@@H](O)CNCCc2cccc(COCCOCc3cccc(F)c3)c2)ccc1O [Example 15, Formic acid compound with 4-[(1R)-2-({2-[3-({2-[(3-fluorobenzyl)oxy]ethoxy}methyl)phenyl]ethyl}amino)-1-hydroxyethyl]-2-(hydroxymethyl)phenol (1:1)]
< 1000 | O=S(=O)(c1cccc(CCOCc2cccc(CCNC[C@H](O)c3ccc(O)c(CO)c3)c2)c1)C1CCCC1 [Example 60, Formic acid compound with 4-[(1R)-2-({2-[3-({2-[3-(cyclopentylsulfonyl)phenyl]ethoxy}methyl)phenyl]ethyl}amino)-1-hydroxyethyl]-2-(hydroxymethyl)phenol (1:1)]
< 1000 | NS(=O)(=O)c1cccc(COCc2cccc(CCNC[C@H](O)c3ccc(O)c(CO)c3)c2)c1 [Example 64, 3-[({3-[2-({(2R)-2-Hydroxy-2-[4-hydroxy-3-(hydroxymethyl)phenyl]ethyl}amino)ethyl]benzyl}oxy)methyl]benzenesulfonamide acetate]
< 1000 | OCc1cc([C@@H](O)CNCCc2cccc(COCCc3ccccc3F)c2)ccc1O [Example 41, Formic acid compound with 4-((1R)-2-{[2-(3-{[2-(2-fluorophenyl)ethoxy]methyl}phenyl)ethyl]amino}-1-hydroxyethyl)-2-(hydroxymethyl)phenol (1:1)]
< 1000 | OCc1cc([C@@H](O)CNCCc2cccc(COCc3ccccc3F)c2)ccc1O [Example 48, Formic acid compound with 4-((1R)-2-{[2-(3-{[(2-fluorobenzyl)oxy]methyl}phenyl)ethyl]amino}-1-hydroxyethyl)-2-(hydroxymethyl)phenol (1:1)]
< 1000 | OCc1cc([C@@H](O)CNCCc2cccc(COCc3ccc(O)cc3)c2)ccc1O [Example 26, Formic acid compound with 4-((1R)-1-hydroxy-2-{[2-(3-{[(4-hydroxybenzyl)oxy]methyl}phenyl)ethyl]amino}ethyl)-2-(hydroxymethyl)phenol (1:1)]
< 1000 | CC(OCCOCc1cccc(CCNC[C@H](O)c2ccc(O)c(CO)c2)c1)c1ccccc1 (stereo partly drawn) [Example 59, Formic acid compound with 2-(hydroxymethyl)-4-((1R)-1-hydroxy-2-{[2-(3-{[2-(1-phenylethoxy)ethoxy]methyl}phenyl)ethyl]amino}ethyl)phenol (1:1)]
< 1000 | N#Cc1ccc(CCCCOCc2cccc(CCNC[C@H](O)c3ccc(O)c(CO)c3)c2)cc1 [Example 21, Formic acid compound with 4-[4-({3-[2-({(2R)-2-hydroxy-2-[4-hydroxy-3-(hydroxymethyl)phenyl]ethyl}amino)ethyl]benzyl}oxy)butyl]benzonitrile (1:1)]
< 1000 | NS(=O)(=O)c1cccc(CCCOCc2cccc(CCNC[C@H](O)c3ccc(O)c(CO)c3)c2)c1 [Example 56, Formic acid compound with 3-[3-({3-[2-({(2R)-2-hydroxy-2-[4-hydroxy-3-(hydroxymethyl)phenyl]ethyl}amino)ethyl]benzyl}oxy)propyl]benzenesulfonamide (1:1)]
< 1000 | OCc1cc([C@@H](O)CNCCc2cccc(COCc3c(Cl)cccc3Cl)c2)ccc1O [Example 47, Formic acid compound with 4-((1R)-2-{[2-(3-{[(2,6-dichlorobenzyl)oxy]methyl}phenyl)ethyl]amino}-1-hydroxyethyl)-2-(hydroxymethyl)phenol (1:1)]
< 1000 | O=S(=O)(c1ccc(CCCOCc2cccc(CCNC[C@H](O)c3ccc(O)c(CO)c3)c2)cc1)C1CCCC1 [Example 30, Formic acid compound with 4-[(1R)-2-({2-[3-({3-[4-(cyclopentylsulfonyl)phenyl]propoxy}methyl)phenyl]ethyl}amino)-1-hydroxyethyl]-2-(hydroxymethyl)phenol (1:1)]
< 1000 | N#Cc1ccc(CCCOCc2cccc(CCNC[C@H](O)c3ccc(O)c(CO)c3)c2)cc1 [Example 20, Formic acid compound with 4-[3-({3-[2-({(2R)-2-hydroxy-2-[4-hydroxy-3-(hydroxymethyl)phenyl]ethyl}amino)ethyl]benzyl}oxy)propyl]benzonitrile (1:1)]
< 1000 | N#Cc1cccc(COCc2cccc(CCNC[C@H](O)c3ccc(O)c(CO)c3)c2)c1 [Example 42, Formic acid compound with 3-[({3-[2-({(2R)-2-hydroxy-2-[4-hydroxy-3-(hydroxymethyl)phenyl]ethyl}amino)ethyl]benzyl}oxy)methyl]benzonitrile (1:1)]
< 1000 | OCc1cc([C@@H](O)CNCCc2cccc(COCCOCc3c(Cl)cccc3Cl)c2)ccc1O [Example 14, Formic acid compound with 4-[(1R)-2-({2-[3-({2-[(2,6-dichlorobenzyl)oxy]ethoxy}methyl)phenyl]ethyl}amino)-1-hydroxyethyl]-2-(hydroxymethyl)phenol (1:1)]

SMILES | EC50 [nM]
[O-][S+](c1cccc(CCCCOCc2cccc(CCNC[C@H](O)c3ccc(O)c(CO)c3)c2)c1)C1CCCC1 (stereo partly drawn) [Example 36, Formic acid compound with 4-[(1R)-2-({2-[3-({4-[3-(cyclopentylsulfinyl)phenyl]butoxy}methyl)phenyl]ethyl}amino)-1-hydroxyethyl]-2-(hydroxymethyl)phenol (1:1)] | < 1000
CS(=O)(=O)c1cccc(CCCCOCc2cccc(CCNC[C@H](O)c3ccc(O)c(CO)c3)c2)c1 [Example 62, Formic acid compound with 2-(hydroxymethyl)-4-[(1R)-1-hydroxy-2-({2-[3-({4-[3-(methylsulfonyl)phenyl]butoxy}methyl)phenyl]ethyl}amino)ethyl]phenol (1:1)] | < 1000
OCc1cc([C@@H](O)CNCCc2cccc(COCCCCc3c(Cl)cccc3Cl)c2)ccc1O [Example 57, Formic acid compound with 4-((1R)-2-{[2-(3-{[4-(2,6-dichlorophenyl)butoxy]methyl}phenyl)ethyl]amino}-1-hydroxyethyl)-2-(hydroxymethyl)phenol (1:1)] | < 1000

Source: patent publication US20070135490A1, “Phenetanolamine derivatives” (priority 2003, published 2007)
